# Experimental data published in patent US10799600B1, “Targeted nanoparticles” (nanoDERM Sciences, Inc., priority 2010, dated 2020).
# Experiments:
# [1] = system: multi-drug resistant (MRSA) Staphylococcus aureus (NRS-385); assay: Clearing zone test on tryptic soy agar against MRSA; type: cell-based; settings: for resistance / sensitivity to control antibiotics: clinically relevant dose 10 μg/ml
# Protocol: (§1) FIG. 8 nanogels conjugated with polymyxin B (PmxnB) or vancomycin (VCM) and/or loaded with 5 mg/ml penicillin/streptomycin (Pen/Strep), and tested on tryptic soy agar for activity against multi-drug resistant (MRSA) Staphylococcus aureus (NRS-385). (1) unmodified particle, Pen/Strep loaded; (2) unmodified particle; (3) Pen-Strep loaded and conjugated with PmxnB; (4) conjugated with PmxnB; (5) conjugated with VCM, Pen-Strep loaded; (6) conjugated with VCM; (7) conjugated with PmxnB/AMCA, Pen/Strep loaded; (8) conjugated with PmxnB/AMCA (fluorescent agent); (9) conjugated with VCM/AMCA, Pen/Strep loaded; (10) conjugated with VCM/AMCA; (11) PmxnB at 5 mg/ml; (12) VCM at 5 mg/ml; (13) Pen/Strep at 5 mg/nil; (14) PmxnB at 100 μg/ml; (15) VCM at 100 μg/ml; (16) Pen/Strep at 100 μg/ml; (17) PmxnB at 10 μg/ml; (18) VCM at 10 μg/ml; (19) Pen/Strep at 10 μg/ml.
# (§2) Acinetobacter baumannii (a) treated with the hydrogel conjugated with polymyxin B (PMB) produced a clearing zone of ˜15 mm in diameter. […] Methicillin-resistant S. aureus (MRSA) (b) treated with VCM-conjugated particles produced a clearing zone of ˜15 mm in diameter.
# (§3) The concept for targeted killing of bacterial pathogens with the hydrogels of the invention is illustrated in FIG. 1.
# [2] = system: multi-drug resistant (and expanded-spectrum beta-lactamase resistant) Acinetobacter baumannii (BAA-1605); assay: Clearing zone test on tryptic soy agar against multi-drug resistant Acinetobacter baumannii; type: cell-based; settings: for resistance / sensitivity to control antibiotics: clinically relevant dose 10 μg/ml, A. baumannii
# Protocol: as §1, with “FIG. 7 nanogels conjugated” for “FIG. 8 nanogels conjugated”, “with 5 mg/nil penicillin/streptomycin (Pen/Strep),” for “with 5 mg/ml penicillin/streptomycin (Pen/Strep),”, “multi-drug resistant (and expanded-spectrum beta-lactamase resistant) Acinetobacter baumannii (BAA-1605). (1) unmodified” for “multi-drug resistant (MRSA) Staphylococcus aureus (NRS-385). (1) unmodified”, “at 5 mg/ml; (14) PmxnB” for “at 5 mg/nil; (14) PmxnB”
# as §2, §3
Compound,resistance / sensitivity to control antibiotics [1],inhibition (clearing zone) ([1]; free control antibiotics at 10 μg/ml),resistance / sensitivity to control antibiotics [2],"clearing zone ([2]; free antibiotic 10 μg/ml, MDR A. baumannii) [mm]",clearing zone ([1]; free antibiotic 10 μg/ml) [mm],"inhibition (clearing zone) ([2]; free control antibiotics (10 μg/ml), MDR A. baumannii)"
polymyxin B [Free PMB],resistant,no inhibition,sensitive,~6,,
"CN[C@H](CC(C)C)C(=O)N[C@H]1C(=O)N[C@@H](CC(N)=O)C(=O)N[C@H]2C(=O)N[C@H]3C(=O)N[C@H](C(=O)N[C@H](C(=O)O)c4cc(O)cc(O)c4-c4cc3ccc4O)[C@H](O)c3ccc(c(Cl)c3)Oc3cc2cc(c3O[C@@H]2O[C@H](CO)[C@@H](O)[C@H](O)[C@H]2O[C@H]2C[C@](C)(N)[C@H](O)[C@H](C)O2)Oc2ccc(cc2Cl)[C@H]1O [Free VCM, Vancomycin]",sensitive,,resistant,,~6,no inhibition
